Data from the supplement of paper PMC11003180.

Key:
Test in all cases: drug sensitivity score (DSS) from 5-dose viability curve (DSS (area-based score, 0 = no response)); higher = more sensitive (stronger viability inhibition); extreme values may be limits of the assay
[1] = system: MDCK wild-type - doxycycline; conditions: doxycycline: none; 72 h
In short: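 An oncology library of 528 drugs was pre-spotted at five doses (1-10,000 nM) in 384-well plates, and parental MDCK cells without doxycycline were added at 2000 cells/well. The plates were kept at 37 °C for 72 h. Drug sensitivity scores were obtained by fitting dose-response curves in the Breeze pipeline to CellTiter-Glo viability readings scaled per plate between vehicle and positive controls.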

[2] = system: MDCK p60AmotL2-inducible + doxycycline (p60AmotL2 expressing); conditions: doxycycline: 10 ng/mL; 72 h
In short: (§1)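 After 72 h at 37 °C on 384-well plates pre-spotted with 528 oncology drugs at five doses (1-10,000 nM), parental and doxycycline-inducible MDCK cells were assessed; both lines had been given 10 ng/mL doxycycline in the medium before seeding at 2000 cells/well. Viability was taken from CellTiter-Glo luminescence scaled per plate to vehicle and positive controls, and drug sensitivity scores were derived from dose-response fits in the Breeze pipeline.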

[3] = system: MDCK wild-type + doxycycline; conditions: doxycycline: 10 ng/mL; 72 h
In short: as §1

Row | Compound | drug sensitivity score [1] | drug sensitivity score [2] | drug sensitivity score [3]
1 | CC1=C2C[C@H]3[C@@H](CC[C@@H]4C[C@H](NS(C)(=O)=O)CC[C@@]43C)[C@@H]2CC[C@@]2(C1)O[C@@H]1C[C@H](C)CN[C@H]1[C@H]2C [Saridegib] | 0 | 0.8 | 0
2 | C[C@]1(c2nc3c(C(N)=O)cccc3[nH]2)CCCN1 [Veliparib] | 0 | 0 | 0
3 | CN1CCc2c(c3ccccc3n2Cc2ccc(C(=O)NO)cc2)C1 [Tubastatin A] | 0 | 0.7 | 0
4 | Cc1c(C(=O)Nc2ccc(N3C[C@@H](C)O[C@@H](C)C3)nc2)cccc1-c1ccc(OC(F)(F)F)cc1 [Sonidegib] | 0.6 | 0 | 0
5 | Cc1[nH]c2ccccc2c1CCNCc1ccc(/C=C/C(=O)NO)cc1 [Panobinostat] | 15.2 | 15 | 12.5
6 | O=C(Nc1ccncc1)C(=O)c1cn(Cc2ccc(Cl)cc2)c2ccccc12 [Indibulin] | 7.2 | 10.7 | 0
7 | CCCCNc1ncc(C(=O)NCc2ccc(-n3ccnc3)cc2)c(NC2CCC(O)CC2)n1 (stereo not given) [UNC2881] | 0 | 1.9 | 0
8 | CN(C)C[C@@H]1CCn2cc(c3ccccc32)C2=C(C(=O)NC2=O)c2cn(c3ccccc23)CCO1 [Ruboxistaurin] | 5.8 | 5.8 | 5.5
9 | CC#CC(=O)N1CCC[C@H]1c1nc(-c2ccc(C(=O)Nc3ccccn3)cc2)c2c(N)nccn12 [Acalabrutinib] | 0 | 0 | 0
10 | O=C(Nc1cc(Oc2cc(F)c(NC(=O)C3(C(=O)Nc4ccc(F)cc4)CC3)cc2F)ccn1)C1CC1 [Altiratinib] | 0 | 8 | 0
11 | COCC[n+]1c2c(n(Cc3cnccn3)c1C)C(=O)c1ccccc1C2=O [Sepantronium bromide] | 26.6 | 34.3 | 30.1
12 | O=c1[nH]c(=O)n([C@H]2C[C@H](O)[C@@H](CO)O2)cc1F [Floxuridine] | 18.2 | 22.7 | 21.7
13 | Cn1c(Nc2ccc(C(F)(F)F)cc2)nc2cc(Oc3ccnc(-c4ncc(C(F)(F)F)[nH]4)c3)ccc21 [NVP-RAF265] | 0 | 0 | 0
14 | S=c1[nH]cnc2nc[nH]c12 [Mercaptopurine] | 2.1 | 1.6 | 1.8
15 | CC(C)N(CCCNC(=O)Nc1ccc(C(C)(C)C)cc1)C[C@H]1O[C@@H](n2cc(Br)c3c(N)ncnc32)[C@H](O)[C@@H]1O [SGC0946] | 0 | 0 | 0
16 | CCNC(=O)CCC/C=C\C[C@@H]1[C@@H](/C=C/[C@@H](O)CCc2ccccc2)[C@H](O)C[C@@H]1O [Bimatoprost] | 0 | 0 | 0
17 | C[C@@H](C(=O)O)c1ccc(-c2ccccc2)c(F)c1 [Tarenflurbil] | 0 | 0 | 0
18 | Nc1nc(Nc2ccc3c(c2)CC[C@@H](N2CCCC2)CC3)nn1-c1cc2c(nn1)-c1ccccc1CCC2 [BGB324] | 5.1 | 5.8 | 5

Row | Compound | drug sensitivity score [1] | drug sensitivity score [2] | drug sensitivity score [3]
19 | Cc1c(-c2c(-c3ccc(F)o3)sc3ncnc(O[C@H](Cc4ccccc4OCc4ccnn4CC(F)(F)F)C(=O)O)c23)ccc(OCCN2CCN(C)CC2)c1Cl | 0 | 0 | 0
20 | CCCCCCCCCCCCCCCCOP(=O)([O-])OCC[N+](C)(C)C [Miltefosine] | 4.9 | 5.3 | 5.2
21 | CC(=O)c1cnc2ccc(-c3cc(Cl)c(O)c(Cl)c3)nc2c1N[C@H]1CC[C@H](CN(C)C)CC1 [OTS167] | 17.2 | 18.8 | 19.4
22 | CC(=O)OC[C@H]1O[C@@H]([S-])[C@H](OC(C)=O)[C@@H](OC(C)=O)[C@@H]1OC(C)=O.CCP(CC)CC.[Au+] [Auranofin] | 4.2 | 4.7 | 4.2
23 | CO[C@@H](C)Cn1c(=O)n(C)c2cnc3ccc(-c4cncc(C(C)(C)O)c4)cc3c21 | 8.2 | 12.8 | 9.1
24 | FC(F)(F)c1ccc(/C=C/c2nc(COc3ccc(CCCCn4ccnn4)cc3)co2)cc1 [Mubritinib] | 0 | 0 | 0
25 | c1cc(CN2CCCNCCNCCCNCC2)ccc1CN1CCCNCCNCCCNCC1 [Plerixafor] | 0 | 0.1 | 0
26 | O=C(/C=C/c1cccnc1)NCCCCC1CCN(C(=O)c2ccccc2)CC1 [Daporinad] | 29.3 | 29.3 | 29.1
27 | CO[C@H]1CC[C@H](N2C(=O)CNc3ncc(-c4ccc(C(C)(C)O)nc4)nc32)CC1 [CC-223] | 2.8 | 5.2 | 2.9
28 | C=CCN(/C=C1/C(=O)O[C@H](COC)[C@@]2(C)C1=C(O)C(=O)C1=C2[C@H](OC(C)=O)C[C@]2(C)C(=O)CC[C@@H]12)CC=C [Sonolisib] | 0 | 0 | 0
29 | Cn1ncnc1[C@H]1c2n[nH]c(=O)c3cc(F)cc(c23)N[C@@H]1c1ccc(F)cc1 [Talazoparib] | 0 | 2.3 | 0
30 | Nc1ccccc1NC(=O)c1ccc(CNC(=O)OCc2cccnc2)cc1 [Entinostat] | 5.4 | 4.4 | 5.5
31 | Cc1sc2c(c1C)C(c1ccc(Cl)cc1)=N[C@@H](CC(=O)NCCCCNC(=O)COc1cccc3c1C(=O)N(C1CCC(=O)NC1=O)C3=O)c1nnc(C)n1-2 (stereo not given in full) [dBET1] | 9.5 | 9.3 | 8
32 | CCC/C=C/C=C/C(=O)O[C@H]1/C(=C/C(=O)OC)C[C@H]2C[C@H]([C@@H](C)O)OC(=O)C[C@H](O)C[C@@H]3C[C@H](OC(C)=O)C(C)(C)[C@](O)(C[C@@H]4C/C(=C/C(=O)OC)C[C@H](/C=C/C(C)(C)[C@]1(O)O2)O4)O3 [Bryostatin 1] | 0 | 0 | 0
33 | CC1CCC(n2c3cnccc3c3cnc(Nc4ccc5c(n4)CCN(C(=O)CO)C5)nc32)CC1 (stereo not given) [AMG-925] | 0 | 1.3 | 0
34 | CCn1c(-c2nonc2N)nc2c(C#CC(C)(C)O)ncc(OC[C@H]3CCCNC3)c21 | 0 | 0.2 | 0
35 | Nc1ncnc2c1nc(Cl)n2[C@@H]1O[C@H](CO)[C@@H](O)[C@H]1O [8-chloro-adenosine] | 6.7 | 13.6 | 8.3
